What was measured:
Assay type in all cases: in vivo
[1] = system: Puccinia recondita f. sp. tritici; test: Test I: wheat leaf rust on wheat seedlings, sprayed the day before inoculation, visual disease rating; settings: 200 ppm, 100 = 100% disease control
Summary of the method: (§1)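 Plants received a run-off spray at 200 ppm (equivalent to 500 g/ha) or, for starred values, 40 ppm. Formulation used acetone at 3% of volume in a 50/50 acetone/water mix carrying 250 ppm Trem® 014.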

[2] = system: Erysiphe graminis f. sp. tritici; test: Test J: wheat powdery mildew on wheat seedlings, sprayed the day before inoculation, visual disease rating; settings: 200 ppm, 100 = 100% disease control
Summary of the method: as §1

[3] = system: Phytophthora infestans; settings: 200 ppm; 100 = 100% disease control, 0 = no control relative to controls
[4] = system: Septoria nodorum; test: Test F: wheat glume blotch on wheat seedlings, sprayed the day before inoculation, visual disease rating; settings: 200 ppm, 100 = 100% disease control
Summary of the method: as §1

[5] = system: Rhizoctonia solani; test: Test B: turf brown patch on bentgrass seedlings, sprayed the day before inoculation, visual disease rating; settings: 200 ppm, 100 = 100% disease control
Source text: General protocol for preparing test suspensions for Tests A-J: The test compounds were first dissolved in acetone in an amount equal to 3% of the final volume and then suspended at the desired concentration (in ppm) in acetone and purified water (50/50 mix) containing 250 ppm of the surfactant Trem® 014 (polyhydric alcohol esters). The resulting test suspensions were then used in tests A-J. Spraying a 200 ppm test suspension to the point of run-off on the test plants was the equivalent of a rate of 500 g/ha. […] The test suspension was sprayed to the point of run-off on bentgrass (Agrostis sp.) seedlings. […] A dash (-) indicates no test results. All results are for 200 ppm except where followed by “*”, which indicates 40 ppm.

[6] = system: Botrytis cinerea; test: Test C: tomato Botrytis on tomato seedlings, sprayed the day before inoculation, visual disease rating; settings: 200 ppm, 100 = 100% disease control
Summary of the method: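 Rate: 200 ppm sprayed to run-off, corresponding to 500 g/ha; flagged values used 40 ppm. Vehicle was aqueous acetone (1:1) plus 250 ppm surfactant, compounds predissolved in acetone at 3% of volume. Plants were tomato seedlings.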

[7] = system: Alternaria solani; test: Test D: tomato early blight, sprayed the day before inoculation, visual disease rating; settings: 200 ppm, 100 = 100% disease control
Summary of the method: as §1

[8] = system: Septoria tritici; test: Test G: wheat leaf blotch on wheat seedlings, sprayed the day before inoculation, visual disease rating; settings: 200 ppm, 100 = 100% disease control
Summary of the method: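 Wheat seedlings were sprayed to run-off with test suspension (acetone/water plus surfactant), generally 200 ppm (≈500 g/ha), or 40 ppm where marked. Septoria tritici spores were inoculated the next day; plants were held 48 h at 24°C in saturated atmosphere, then 19 days at 20°C before visual disease rating.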

[9] = system: Puccinia recondita f. sp. tritici; test: Test H: wheat leaf rust, test suspension sprayed after inoculation of wheat seedlings, visual disease rating; settings: 200 ppm; 100 = 100% disease control, 0 = no control relative to controls
Summary of the method: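 Wheat seedlings inoculated with P. recondita spores, held 24 h saturated at 20 °C, then 2 days in growth chamber at 20 °C; compound suspension (acetone/water with Trem 014) sprayed to run-off afterwards. Rated visually; 200 ppm (≈500 g/ha) unless marked *, which denotes 40 ppm.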

[10] = 0 = no control relative to controls

Row | SMILES | Test I disease control rating [1, 10] [%] | Test J disease control rating [2, 10] [%] | Test E disease control rating [3] [%] | Test F disease control rating [4, 10] [%] | Test B disease control rating [5, 10] [%] | Test C disease control rating [6, 10] [%] | Test D disease control rating [7, 10] [%] | Test G disease control rating [8, 10] [%] | Test I disease control rating ([1]; 0 = no control) [%] | Test J disease control rating ([2]; 0 = no control) [%] | Test F disease control rating ([4]; 0 = no control) [%] | Test B disease control rating ([5]; 0 = no control) [%] | Test C disease control rating ([6]; 0 = no control) [%] | Test D disease control rating ([7]; 0 = no control) [%] | Test G disease control rating ([8]; 0 = no control) [%] | Test H disease control rating [9] [%]
1 | Cc1nn(C)c(-c2ccc(Cl)c(F)c2)c1-c1c(F)cc(F)cc1F [compound 104] | 0 | 95 | 0 | 0 | 0 | 92 | 98 | 32 |  |  |  |  |  |  |  | 
2 | COc1cc(F)c(-c2c(C)nn(C)c2-c2ccc(Cl)c(OC)c2)c(F)c1 [compound 111] | 89 | 99 | 0 | 100 | 81 | 99 | 99 | 100 |  |  |  |  |  |  |  | 
3 | COc1cc(F)c(-c2c(C)nn(C)c2-c2ccc(Cl)c(F)c2)c(F)c1 [compound 115] | 98 | 100 | 0 | 98 | 99 | 99 | 99 | 99 |  |  |  |  |  |  |  | 
4 | Cc1ccc(-n2cnc(Cl)c2-c2c(F)cccc2Cl)cc1 [compound 181] |  |  |  |  |  |  |  |  | 98 | 99 | 0 | 24 | 99 | 0 | 94 | 
5 | COc1ccc(-n2c(Cl)nc(C)c2-c2c(F)cccc2F)cn1 [compound 718] | 100 | 100 |  | 97 |  | 100 | 100 | 100 |  |  |  |  |  |  |  | 99
6 | COc1ccc(-n2c(Br)nc(C)c2-c2c(F)cccc2F)cn1 [compound 719] | 100 | 100 |  | 98 |  | 99 | 100 | 99 |  |  |  |  |  |  |  | 99
7 | CCOc1cc(F)c(-c2c(Cl)ncn2-c2ccc(C)cc2)c(F)c1 [compound 723] | 68 | 95 |  | 0 |  | 100 | 99 | 97 |  |  |  |  |  |  |  | 66
8 | CCOc1ccc(F)c(-c2c(Cl)nc(C)n2-c2cccc(F)c2)c1F [compound 724] | 100 | 99 |  | 97 |  | 100 | 100 | 98 |  |  |  |  |  |  |  | 0
9 | COc1ccc(-c2c(Cl)nc(Br)n2-c2ccc(F)cc2)c(Cl)c1 [compound 725] | 91 | 98 |  | 73 |  | 100 | 99 | 99 |  |  |  |  |  |  |  | 15
10 | COc1ccc(-c2c(Cl)ncn2-c2ccc(F)cc2)c(Cl)c1 [compound 726] | 80 | 89 |  | 0 |  | 99 | 99 | 99 |  |  |  |  |  |  |  | 0
11 | COc1cc(F)c(-c2c(Cl)nc(Cl)n2C(C)c2ncc(Cl)cc2Cl)c(F)c1 (stereo not drawn) [compound 727] | 74 | 21 |  | 0 |  | 98 | 0 | 89 |  |  |  |  |  |  |  | 15
12 | COc1cc(F)c(-c2c(Cl)nc(Cl)n2-c2cncc(F)c2)c(F)c1 [compound 728] | 100 | 100 |  | 100 |  | 100 | 100 | 99 |  |  |  |  |  |  |  | 100
13 | COc1ccc(F)c(-c2c(Cl)nc(Br)n2-c2ccc(Cl)nc2)c1F [compound 730] | 99 | 100 |  | 99 |  | 100 | 100 | 100 |  |  |  |  |  |  |  | 9
14 | COc1cc(F)c(-c2c(C)nc(Br)n2-c2ccc(C(F)(F)F)nc2)c(F)c1 [compound 731] | 99 | 100 |  | 99 |  | 99 | 100 | 100 |  |  |  |  |  |  |  | 0
15 | COc1cc(F)c(-c2c(C)nc(Cl)n2-c2ccc(C(F)(F)F)nc2)c(F)c1 [compound 732] | 99 | 100 |  | 100 |  | 100 | 100 | 99 |  |  |  |  |  |  |  | 0
16 | COc1ccc(F)c(-c2c(C)nc(Cl)n2-c2ccc(Cl)nc2)c1F [compound 733] | 100 | 100 |  | 100 |  | 100 | 100 | 100 |  |  |  |  |  |  |  | 41
17 | COc1ccc(F)c(-c2c(C)nc(Br)n2-c2ccc(Cl)nc2)c1F [compound 735] | 100 | 100 |  | 99 |  | 100 | 100 | 100 |  |  |  |  |  |  |  | 9
18 | COc1cc(F)c(-c2c(C)nc(Br)n2-c2ccc(OC)nc2)c(F)c1 [compound 736] | 100 | 100 |  | 97 |  | 99 | 100 | 100 |  |  |  |  |  |  |  | 99
19 | COc1cc(F)c(-c2c(C)nc(Cl)n2-c2ccc(OC)nc2)c(F)c1 [compound 737] | 100 | 100 |  | 100 |  | 100 | 100 | 100 |  |  |  |  |  |  |  | 100
20 | COc1ccc(F)c(-c2c(Cl)nc(C)n2-c2ccc(Cl)nc2)c1F [compound 738] | 100 | 100 |  | 100 |  | 100 | 100 | 100 |  |  |  |  |  |  |  | 96
21 | COc1cc(F)c(-c2c(Cl)nc(C)n2-c2ccc(Cl)nc2)c(F)c1 [compound 739] | 100 | 100 |  | 100 |  | 100 | 100 | 100 |  |  |  |  |  |  |  | 100
